Results published in patent US12070505B2, “Targeted peptide-drug conjugates” (priority 2021, dated 2024).
Where two headings read alike, the source gives them in different places. Residues, ends and D or L forms follow the SMILES beside them. Groups on a side chain read outwards from the residue. *: point of attachment. Glutaryl(5-(14-O-Dox)) = COc1cccc2c1C(=O)c1c(O)c3c(c(O)c1C2=O)C[C@@](O)(C(=O)COC(=O)CCCC(=O)*)C[C@@H]3O[C@H]1C[C@H](N)[C@H](O)[C@H](C)O1; βAla = NCCC(=O)O

Tests used:
MCF-7 cells = assay: MTS cytotoxicity assay of [(WR)8WKβA]-Dox, MCF-7; type: cell-based
Experimental: (§1) Cytotoxic activity of the synthesized conjugate and noncovalent mixtures of cyclic [WR]9+Dox was determined in SK-OV-3, MDA-MB-231, MCF-7, MES-SA/MX2, and H9C2 cells. […] An appropriate growth medium was used for each cell line (for SK-OV-3: McCoy's […] with L-glutamine containing fetal bovine serum (FBS) (10%) and penicillin or streptomycin (1%); for MDA-MB-231 and MCF-7 cells: DMEM/F12 (1:1) (1×) with L-Glutamine and 15 mM HEPES containing FBS (10%) and penicillin or streptomycin (1%), and for MES-SA/MX2 and H9C2 cells: Minimum Essential Medium Eagle with Earle's salts and sodium bicarbonate, without L-glutamine containing FBS (10%), and penicillin or streptomycin (1%)). The cells were seeded in a complete growth medium 24 h prior to the experiment. […] The incubation was continued for 3 h.

MES-SA/MX2 cells [1] = assay: MTS cytotoxicity assay of [(WR)8WKβA]-Dox, MES-SA/MX2; conditions: MES-SA/MX2; for reduction in cell viability: 24 h
Experimental: as §1

H9C2 myocardium cells = conditions: 24 h
Experimental: as §1

H9C2 cells = assay: Confocal microscopy uptake in H9C2 (Example 2); type: cell-based, rat; conditions: 5 μM, 24 h
Experimental: Confocal Microscopy. MDA-MB-231, SK-OV-3, MES-SA/MX2, and H9C2 cells (7×10^4 cells/well) were seeded with a medium on a coverslip 24 h prior to the experiment in six well plates. After 24 h, the medium was changed with opti-MEM. The cells were treated with Dox and peptide-Dox conjugate (5 μM) in opti-MEM for 24 h. After 24 h incubation, the media were removed, and cells were washed three times with PBS in each well. Then, the cells were fixed with 3.7% formaldehyde for 10 min, followed by washing three times with PBS (pH 7.6) for 5 min. DAPI (40 μL) for staining the nuclei was placed on a microscope slide, and it was covered with the coverslip with the cell-attached side facing down. The slides were left standing horizontally in a dark place with airflow to allow faster drying. The cells were photographed using Nikon Instruments A1 Confocal Laser Microscope Series and NIS-Elements software (AR 4.30.02, 64 bit). The scan mode was selected as Galvano. The magnification and resolution were set at 40× and 1024, respectively.

MDA-MB-231 cells [2] = assay: Differential extraction of Dox in nuclear and cytoplasmic compartments (HPLC); type: cell-based; conditions: 50 μM; 4 h exposure
Experimental: Differential Extraction of Dox in Nuclear and Cytoplasmic Compartments. In order to confirm nuclear delivery of peptide-conjugated Dox, in addition to confocal microscopy, a differential nuclear and cytoplasmic extraction was performed. […] The cells were then pelleted at 2000 rpm for 5 min. After removing the supernatant, the cells were resuspended in Dounce buffer containing protease inhibitors. The cell suspension to be used was incubated on ice for 15 min before being spiked with cold 10% NP-40 and vortexed for 10 s. The suspension was centrifuged at 10,000 rpm for 10 min at 4° C. to pellet the nuclei. The supernatant was isolated for cytoplasmic extraction. The nuclear pellet was washed in cold PBS twice and centrifuged to remove the supernatant. The isolated nuclei were then lysed using RIPA buffer containing protease inhibitors. The nuclear and cytoplasmic extractions were analyzed by analytical HPLC to differentially quantify free Dox (or Dox released from the conjugates) and peptide-conjugate Dox using an Agilent Zorbax SB-C18 (4.6×150 mm) column. The column was equilibrated with 0.1% TFA-water (solvent A). The elution was performed at a flow rate of 1 mL/min using a gradient of acetonitrile from 0 to 35% in 50 min, with the absorbance measured at 490 nm.

MDA-MB-231 cells [3] = assay: FACS cellular uptake with endocytosis inhibitors, MDA-MB-231; type: cell-based; conditions: 5 μM, 3 h
Experimental: Fluorescence-Activated Cell Sorter (FACS) Analysis of Cellular Uptake in the Presence of Endocytosis Inhibitors. A flow cytometry study was conducted in the presence of endocytosis inhibitors such as nystatin, chlorpromazine, chloroquine, and methyl β-cyclodextrin to determine whether the cellular uptake for the peptide-Dox was endocytosis-dependent. MDA-MB-231 (5×10^5 cells/well) were seeded in the medium 24 h prior to the experiment in six well plates, and after 24 h the medium was changed with Opti-MEM. […] After 3 h incubation, the media containing the compounds were removed. Next, the cells were digested with 0.05% trypsin/EDTA (0.53 mM) for 5 min to remove any artificial surface binding, centrifuged at 2500 RPM for 5 min, and then collected as the precipitant. Then the cells were washed two times with PBS, resuspended in flow cytometry buffer, and transferred to the flow cytometry tubes through the 35 μm Strainer Mesh cap. Finally, the cells were analyzed by flow cytometry (FACSCalibur Becton Dickinson) using the propidium iodide channel and CellQuest software. The data presented were based on the mean fluorescence intensity for 10,000 cells collected. All assays were performed in triplicate.

MES-SA/MX2 cells [4] = assay: FACS cellular uptake with endocytosis inhibitors, MES-SA/MX2; type: cell-based; conditions: 5 μM, 3 h
CCRF-CEM cells = conditions: 5 μM
Experimental: Intracellular Hydrolysis. […] Cells were grown with serum-free RPMI medium in 75 cm^2 culture flasks to approximately 70-80% confluence (1.37×10^7 cells/mL). […] Then the cells were incubated at 37° C. After 4 h, the medium containing the conjugate was aspirated, and cells were washed three times with PBS before adding a fresh serum-free medium. The cells were first partitioned/transferred to culture plates (six wells) contained 1.37×10^7 cells per well in 5 mL of medium, then incubated for the indicated time. After incubation, the cells were collected using centrifugation. After centrifugation, the medium was removed by decantation. The cell pellets were washed with ice-cold PBS to remove any remaining medium. The cell pellets were then completely extracted with an equal volume of methanol, chloroform, and isopropanol mixture (4:3:1 v/v/v) and finally filtered through 0.2 μm filters.

in vitro = conditions: human, 25% human serum
Experimental: Human serum (250 μL) was diluted by adding sterile water (650 μL) and conjugate stock solution (100 μL) to give a sample with 25% human serum and 5 μM conjugate. The sample was kept at 37° C. in an incubator to mimic human body temperature. At regular time intervals, aliquots (100 μL) were taken and diluted with methanol (200 μL). After centrifugation (7000 RPM) of the mixture for 10 min, the supernatant was analyzed by analytical HPLC at 495 nm, and the major HPLC peaks were analyzed by mass spectrometry. The mobile phase used was acetonitrile/water with 0.1% TFA, with a gradient of 20-45% and a flow rate of 1 mL/min in 50 min. The percentage of intact conjugate and the release of the free drug were plotted against incubation time. The AUC obtained after each run was used to confirm the conjugate's degradation, and t1/2 (the time needed to hydrolyze half of the initial conjugate in human serum) was calculated from the graph plotted as AUC versus incubation time.

COc1cccc2c1C(=O)c1c(O)c3c(c(O)c1C2=O)C[C@@](O)(C(=O)COC(=O)CCCC(=O)NCCC(=O)NCCCC[C@@H]1NC(=O)[C@H](Cc2c[nH]c4ccccc24)NC(=O)[C@H](CCCNC(=N)N)NC(=O)[C@H](Cc2c[nH]c4ccccc24)NC(=O)[C@H](CCCNC(=N)N)NC(=O)[C@H](Cc2c[nH]c4ccccc24)NC(=O)[C@H](CCCNC(=N)N)NC(=O)[C@H](Cc2c[nH]c4ccccc24)NC(=O)[C@H](CCCNC(=N)N)NC(=O)[C@H](Cc2c[nH]c4ccccc24)NC(=O)[C@H](CCCNC(=N)N)NC(=O)[C@H](Cc2c[nH]c4ccccc24)NC(=O)[C@H](CCCNC(=N)N)NC(=O)[C@H](Cc2c[nH]c4ccccc24)NC(=O)[C@H](CCCNC(=N)N)NC(=O)[C@H](Cc2c[nH]c4ccccc24)NC(=O)[C@H](CCCNC(=N)N)NC(=O)[C@H](Cc2c[nH]c4ccccc24)NC1=O)C[C@@H]3O[C@H]1C[C@H](N)[C@H](O)[C@H](C)O1 [[(WR)8WKβA]-Dox] (cyclo(K([βAla-Glutaryl(5-(14-O-Dox))])WRWRWRWRWRWRWRWRW))
reduction of cell proliferation (MCF-7 cells; 1 μM, 24 h): 28%
reduction of cell proliferation (MCF-7 cells; 1 μM, 72 h): 70%
reduction of cell proliferation (MCF-7 cells; 5 μM, 24 h): 55%
reduction of cell proliferation (MCF-7 cells; 5 μM, 72 h): 77%
reduction of cell proliferation (MCF-7 cells; 10 μM, 24 h): 56%
reduction of cell proliferation (MCF-7 cells; 10 μM, 72 h): 77%
reduction in cell viability (MES-SA/MX2 cells [1]; 1 μM): 64%
reduction in cell viability (MES-SA/MX2 cells [1]; 5 μM): 50%
Dox-resistant cell survival / viability (MES-SA/MX2 cells [1]; 5 μM, 72 h): 8%
reduction in cell viability (MES-SA/MX2 cells [1]; 10 μM): 39%
cytotoxicity (H9C2 myocardium cells; 1 μM and 5 μM): no significant cytotoxicity
cytotoxicity (H9C2 myocardium cells; 10 μM): comparable to Dox
uptake in heart cells (confocal microscopy, words) (H9C2 cells): did not show any significant uptake
total concentration of Dox (conjugated and released) in the nucleus (MDA-MB-231 cells [2]): higher than free Dox
cellular uptake in presence of nystatin and chloroquine (MDA-MB-231 cells [3]): not reduced significantly
cellular uptake in presence of nystatin and chloroquine (MES-SA/MX2 cells [4]): not reduced significantly
free Dox released intracellularly (CCRF-CEM cells; within 12 h): More than 36%
free Dox released intracellularly (CCRF-CEM cells; within 72 h): Approximately 100%
half-life at 5 μM (in vitro): ~6 h
remaining at 3 h, 5 μM (in vitro): 80%
